Legend:
Yeast (Δyhb1) = format: cell-based, Saccharomyces cerevisiae; conditions: growth monitored by absorbance at 600 nm
Experimental: The YHB1 gene was deleted from yeast strain CG-1945 and the absence of NO consumption activity was verified (Liu et al., 2000). Yeast two-hybrid screening was then performed in the CG-1945-Ayhbl host. […]
Yeast (Δyhb1) were transformed with Gal4 BD-caspase-3 plasmid (bait) and a cDNA library (Gal4 AD prey plasmids) derived from activated (NO generating) macrophages. […] DETA-NO at less than 300 μM generates NO without inhibiting yeast growth (monitored by absorbance at 600 nm). Steady state NO concentrations are maintained at ˜100 nM–1 μM range for several days as measured with an NO electrode (not shown).
(§1) To assess the possibility of NO-dependent regulation of protein-protein interactions in a cellular context, a modified yeast two-hybrid screening methodology was developed. […] It was also necessary to establish a concentration range of DETA-NO over which physiological amounts of NO could be generated in these assays without impairing yeast growth (FIG. 1A) (100 μM DETA-NO produces steady state concentrations of ˜300 nM NO in yeast culture medium, as determined using an NO electrode)

[1] = format: physicochemical
Experimental: (§2) Yeast (Δyhb1) were transformed with Gal4 BD-caspase-3 plasmid (bait) and a cDNA library (Gal4 AD prey plasmids) derived from activated (NO generating) macrophages. Screening was performed as described in the methods below. DETA-NO at less than 300 μM generates NO without inhibiting yeast growth (monitored by absorbance at 600 nm). Steady state NO concentrations are maintained at ˜100 nM–1 μM range for several days as measured with an NO electrode (not shown).
as §1, with “developed. The first step was to delete the yeast flavohemoglobin gene (Liu et al., 2000), which consumes NO very efficiently and thus obfuscates NO signaling.” for “developed.”
Purified caspase-3 was incubated in the presence or absence 20 μM DETA-NO for 60 min (30 nM steady state NO), followed by incubation with ASM at 37° C. for 2 hrs, and IP with caspase-3 antibody. […] S-nitrosylation of caspase-3 by NO was separately verified by photolysis-chemiluminesence (Mannick et al., 1999). The interaction of caspase-3 with ASM was measured as ASM activity in caspase-3 IP's (pH 5.0). Little or no ASM activity was present in IP's with caspase-3 antibody of either caspase-3 or ASM in isolation.
To determine the relevant target(s) of NO, ASM/caspase-3 co-precipitations were carried out following NO treatment of each partner alone. Using an ASM activity assay, the amounts of ASM that could be precipitated with a procaspase-3 antibody was assessed from co-incubates (2 hours at 37° C.) of ASM (20 pmol) and caspase-3 in limiting amounts (2.5 pmol). […]

[2] = target: T1, caspase-3 interaction with iNOS / ASM (Homo sapiens, UniProt P42574); test: Modified yeast two-hybrid, NO-dependent growth of iNOS/caspase-3 and ASM/caspase-3 clones; format: cell-based; conditions: 72 hrs, triple-deficient medium
T1 construct: expressed in transfected cells; host or cells: Saccharomyces cerevisiae CG-1945 Δyhb1
T1 sequence (P42574 1-277): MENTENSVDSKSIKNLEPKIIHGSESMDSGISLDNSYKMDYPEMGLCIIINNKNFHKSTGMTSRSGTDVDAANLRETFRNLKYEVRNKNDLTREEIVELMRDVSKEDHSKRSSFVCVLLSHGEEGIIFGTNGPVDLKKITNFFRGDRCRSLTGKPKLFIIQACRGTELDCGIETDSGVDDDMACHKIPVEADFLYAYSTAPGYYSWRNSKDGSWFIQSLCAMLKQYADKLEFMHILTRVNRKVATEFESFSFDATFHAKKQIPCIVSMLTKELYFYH
Experimental: as §2
Auxotrophic selection was carried out on agar plates (15 cm in diameter) enriched in 50 mM phosphate buffer (pH 7.2; His-Trp-Leu (triple)-deficient buffered medium (TDBM)). […] Prey plasmids were isolated from positive yeast clones and then re-introduced into the bait strain to confirm bait-prey interactions. Method 2: After cells were seeded on 1.5% agar they were covered with 3% low melting point agar, which in turn was layered with culture medium. NO donors (e.g. DETA-NO; 300 μM final concentration) were added to the liquid layer every 24 hours. Colonies are grown for 4 days as described in ref 9. Method 3:
Auxotrophic selection was carried out in TDBM. Transformation with the cDNA library was followed by overnight growth in medium deficient in tryptophan and leucine. Transformants were then grown for 3 days in His-deficient medium supplemented with DETA-NO (typically 200 μM final concentration). […]

[3] = target: T2, caspase-3/ASM interaction in HEK-293 cells (Homo sapiens, UniProt P42574); test: Caspase-3 immunoprecipitation, ASM blot, HEK-293 cells exposed to DETA-NO; format: cell-based; conditions: 200 μM DETA-NO
T2 construct: endogenous in cells; host or cells: HEK-293
T2 sequence (P42574 29-277): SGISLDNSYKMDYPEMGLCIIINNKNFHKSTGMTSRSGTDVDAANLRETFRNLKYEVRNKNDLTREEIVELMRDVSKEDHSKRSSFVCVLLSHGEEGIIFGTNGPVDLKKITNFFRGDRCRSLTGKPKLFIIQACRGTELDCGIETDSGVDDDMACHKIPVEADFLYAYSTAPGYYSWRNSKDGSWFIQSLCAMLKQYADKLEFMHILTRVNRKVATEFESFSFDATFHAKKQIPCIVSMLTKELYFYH
T2 sequence (P17405 47-631 partner): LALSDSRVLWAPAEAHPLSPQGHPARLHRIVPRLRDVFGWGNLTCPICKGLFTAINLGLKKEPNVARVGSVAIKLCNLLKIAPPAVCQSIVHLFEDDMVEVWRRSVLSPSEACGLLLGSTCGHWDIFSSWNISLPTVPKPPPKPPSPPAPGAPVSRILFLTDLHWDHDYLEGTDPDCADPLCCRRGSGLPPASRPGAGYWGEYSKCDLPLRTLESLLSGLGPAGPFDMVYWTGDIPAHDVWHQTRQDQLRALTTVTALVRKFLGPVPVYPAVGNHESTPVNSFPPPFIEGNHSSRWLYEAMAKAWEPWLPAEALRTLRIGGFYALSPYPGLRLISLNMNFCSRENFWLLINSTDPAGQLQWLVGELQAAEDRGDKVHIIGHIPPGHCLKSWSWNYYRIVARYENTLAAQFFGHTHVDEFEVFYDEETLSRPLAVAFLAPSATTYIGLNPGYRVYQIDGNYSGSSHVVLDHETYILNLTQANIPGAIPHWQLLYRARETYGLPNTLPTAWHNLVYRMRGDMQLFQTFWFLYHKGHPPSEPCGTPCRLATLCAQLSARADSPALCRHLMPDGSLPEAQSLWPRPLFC
Experimental: (§3) Thirty million cells were lysed by gentle homogenization in 1 ml IP buffer (10 mM NaPi, 100 mM NaCl, 1 mM EDTA, pH 7.9, with protease inhibitor cocktail). The supernatant obtained by centrifugation at 20,000 g for 10 min was used for immunoprecipitation. Caspase-3 immunoprecipitates (2.5 μg anti-caspase-3 monoclonal antibody, Transduction Laboratories) were washed, separated on 10% SDS-PAGE, and blotted with ASM antisera (Santa Cruz Biotechnology); 5% of the sample was blotted for caspase-3.
Bulotta et al., 2001; De Nadal et al., 2000). […] To define further the NO requirement for this interaction, caspase-3 was immunoprecipitated from wild-type HEK cells and from HEK cells stably transfected with nNOS (Bredt et al., 1992), in the presence and absence of the NOS inhibitor L-NMMA. Little or no ASM was pulled down in precipitates from wild-type HEK cells, whereas ASM was readily detected in the precipitates from nNOS-expressing cells (FIG. 2). Moreover, ASM/caspase-3 interactions were observed not only between the 57 kD mature form of ASM, but also with the ASM proform (75 kD) and a smaller processed form (47 kD), which may be alternatively regulated (Ferlinz et al., 1994; Hurwitz et al., 1994).

[4] = system: ASM/caspase-3 interaction in nNOS-expressing HEK cells; test: Caspase-3 IP from nNOS-expressing HEK cells, ASM isoforms; format: cell-based, Human; conditions: L-NMMA 3 mM
Experimental: as §3
Amounts of ASM isoforms (47, 57, 75 kDa) in caspase-3 immunoprecipitates (IP) from wild type (WT) vs. nNOS-expressing HEK cells were normalized with respect to the amounts of caspase-3 in the IPs (FIG. 2, bar graphs); IPs were performed in the presence and absence of the NOS inhibitor, LNMMA (3 mM). nNOS vs. WT (single asterisk, P<0.01) and nNOS vs. nNOS+LNMMA (double asterisk, p<0.05). A and B, n=7–14; C, n=3–5.
Bulotta et al., 2001; De Nadal et al., 2000). […] To define further the NO requirement for this interaction, caspase-3 was immunoprecipitated from wild-type HEK cells and from HEK cells stably transfected with nNOS (Bredt et al., 1992), in the presence and absence of the NOS inhibitor L-NMMA. Little or no ASM was pulled down in precipitates from wild-type HEK cells, whereas ASM was readily detected in the precipitates from nNOS-expressing cells (FIG. 2). […]

[5] = target: T3, eNOS/caspase-3 interaction in eNOS-expressing HEK cells (Bos taurus, UniProt P29473); test: Caspase-3 IP from eNOS-expressing HEK cells, amounts of eNOS; format: cell-based, Human; conditions: L-NMMA 3 mM with L-arginine 1 mM/Ca2+ 200 μM
T3 construct: expressed in transfected cells; host or cells: HEK-293 expressing eNOS
Experimental: HEK cell lysates from wild type (WT), nNOS- and eNOS-expressing cells were immunoprecipitated with caspase-3 monoclonal antibodies and blotted (IB) for nNOS, eNOS, and caspase-3, respectively. eNOS, nNOS and caspase-3 in whole cell lysates (Lysate) and in IPs from those lysates (7–20% SDS-PAGE) are shown. Data are representative of 5 similar experiments. eNOS and nNOS were not detectable in control IPs (not shown).
eNOS-expressing HEK cells were treated with L-arginine (1 mM)/Ca^2+ (200 μM) (to activate NOS) in the presence or absence of L-NMMA (3 mM) (to inhibit NOS activation). Amounts of eNOS were quantified from scanned Western blots (7–20% SDS-PAGE) and normalized with respect to amounts of caspase in the IP (bar graph), (n=3).
To probe further the physiological relevance of NO-dependent protein-protein interactions of NOS, the effects of NOS activity on binding of caspase-3 were assessed. […] Thus, NOS reversibly regulates its own binding to capase-3 through NO production.

| effect on eNOS interaction with caspase-3 after NOS activation [5] | Structure (SMILES) | DETA-NO concentration that generates NO without inhibiting yeast growth (Yeast (Δyhb1)) | half-life [1] [h] | steady state / maximum NO concentration ([1]; 20 μM DETA-NO, 60 min) [nM] | steady state concentration of NO ([1]; 100 μM DETA-NO, yeast culture medium, NO electrode) [nM] | concentration that optimally induced in yeast the interactions of caspase-3 with ASM and iNOS [2] [µM] | co-precipitation of ASM with caspase-3 [3] | effect on interaction between ASM isoforms and caspase-3 [4] |
| --- | --- | --- | --- | --- | --- | --- | --- | --- |
| – | NCCN(CCN)/[N+]([O-])=N/O [DETA-NO, diethylenetriamine-NO] | less than 300 μM | ~18 | 30 | ~300 | 200 | immunoprecipitation of caspase-3 brought down the 57 kD active form of ASM | – |
| almost completely reversed this effect | CNC(=N)NCCC[C@H](N)C(=O)O [L-NMMA] | – | – | – | – | – | – | significantly reduced the interaction |

— patent publication US7229762B2, “Proteomic screening for redox state dependent protein—protein interactions” (Duke University Medical Center, priority 2003, dated 2007)
